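Step 1: Grow cells in 96-well plates. Step 2: Expose to compound for 48 hours at 5 concentrations. Step 3: Interpolate endpoints linearly; if unreached, use highest concentration. The concentration for 50% growth inhibition is given as GI50. The concentration for full growth arrest is given as TGI.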
Tested on: 786-0 renal
Assay: NCI tumour cell line growth inhibition, 48 h

| Compound | TGI [µM] | GI50 [µM] |
| --- | --- | --- |
| CN1CCc2ccccc2C(C(=O)c2ccc3c(c2)OCO3)C1=O (centres undefined) | > 100 | – |
| Cc1cc(Cl)ccc1NC(=O)C1C(=O)N(c2ccc(Cl)cc2C)C(=O)/C1=N\NC(N)=S (centres undefined) | > 100 | – |
| COc1ccc(C2=Nn3c(nnc3-n3nc(C)cc3C)SC2)cc1 | > 100 | 0.146 |
| COc1cc(-c2nn(-c3cccc(NC(=O)CCNc4ccc(N5CCOCC5)cc4)c3)cc2-c2ccncc2)ccc1Cl | 34.7 | 2.87 |
| COc1ccc(Br)c(C(=O)N2CCc3ccccc32)c1N | > 100 | – |
| COc1ccc(C)cc1NC(=S)C#N | > 100 | – |
| CC(=O)Oc1cc2cnc3c4cc(OC(C)=O)c(OC(C)=O)cc4ccc3c2cc1OC(C)=O | 16.3 | 2.99 |
| Cc1ccc2ccc(-c3ccccc3)c3c2c1C(=O)c1ccccc1C3=O | > 100 | – |
| OCC(O)C(O)C(O)c1nn(-c2ccc(F)cc2)c2nc3cc(Cl)c(Cl)cc3nc12 (centres undefined) | 81.9 | – |
| CCCCCC[C@H]1C(=O)O[C@H](C)[C@H](NC(=O)c2cccc(NC=O)c2OC)C(=O)O[C@@H](C)[C@@H]1OC(=O)CCC (tested in a mixture with another compound) | 27.1 | 13.1 |
| COc1ccc(C2Cc3cc(OC)c(OC)c(OC)c3C2)cc1 (centres undefined) | > 100 | – |

Tested on: HOP-92 NSCLC
Assay: NCI tumour cell line growth inhibition, 48 h

| Compound | GI50 [µM] | TGI [µM] |
| --- | --- | --- |
| CS(=O)(=O)Nc1cc(-c2ccc3ncnc(Nc4cccc(Cl)c4)c3c2)cnc1Cl | 0.122 | 0.96 |
| CN(C)c1ccc(C(O)C2=CC(=O)c3ccccc3C2=O)cc1 (centres undefined) | 1.56 | 4.16 |
| Clc1ccc(CN2CCCN(Cc3ccc(Cl)cc3)C2c2cc3ccccc3c3ccccc23)cc1 | – | > 100 |
| COc1ccc2c(c1OC)O/C(=C\c1ncc([N+](=O)[O-])n1C)C2=O | 1.45 | 4.86 |
| COc1cc(N(C)C)c(OC)cc1C=C1C=CC=C1 | – | > 100 |
| C=C1CC[C@H]2C(C)=CC[C@H]3C(=C)C(=O)O[C@@H]3[C@@H]12 | – | > 100 |
| COc1ccc(-c2csc(Nc3cccc(-c4csc(C)n4)c3)n2)cc1 | 24.7 | > 50 |
| COc1cc(/C=C2\SC(N3CCCCC3)=NC2=O)ccc1OCCCCCCOc1ccc(/C=C2\SC(N3CCCCC3)=NC2=O)cc1OC | 2.47 | 8.95 |
| CCOC1Oc2ccc(C)cc2C(=O)/C1=C\Nc1ccc(S(N)(=O)=O)cc1 (centres undefined) | 8.9 | 29.6 |
| COc1ccc(-c2c(N)noc2-c2cc(OC)c3c(c2)OCCO3)cc1 | 0.12 | > 40 |
| CCOC(=O)c1c(NC(=O)c2ccc(Cl)cc2)sc2c(CN(C)C)c(O)ccc12 | 1.78 | 6.07 |
| CCCCC1(C(NC(=O)c2ccccc2Cl)c2ccncc2)C(=O)N(c2ccccc2)N(c2ccccc2)C1=O (centres undefined) | – | > 100 |
| N#Cc1cc(S(=O)(=O)Nc2nc3cc(Cl)ccc3o2)c(SCc2ccccc2)cc1Cl | 10.5 | 23.5 |
| C#C[C@]1(O)CC[C@H]2[C@@H]3CC=C4c5nc(N)sc5CC[C@]4(C)[C@H]3CC[C@@]21C | 3.7 | 19.5 |
| C1=CC2CCC1CN2CCC1CNc2ccccc21 (centres undefined) | – | > 100 |
| Cc1ccc(S(=O)C(C)C(Cl)c2ccccc2)cc1 (centres undefined) | – | > 100 |
| CN1CCc2ccccc2C(C(=O)c2ccc3c(c2)OCO3)C1=O (centres undefined) | – | > 100 |
| Cc1cc(Cl)ccc1NC(=O)C1C(=O)N(c2ccc(Cl)cc2C)C(=O)/C1=N\NC(N)=S (centres undefined) | – | 46.6 |
| COc1ccc(C2=Nn3c(nnc3-n3nc(C)cc3C)SC2)cc1 | 0.0245 | 0.836 |
| COc1cc(-c2nn(-c3cccc(NC(=O)CCNc4ccc(N5CCOCC5)cc4)c3)cc2-c2ccncc2)ccc1Cl | 2.37 | 8.01 |
| COc1ccc(Br)c(C(=O)N2CCc3ccccc32)c1N | – | > 100 |
| COc1ccc(C)cc1NC(=S)C#N | – | > 100 |
| CC(=O)Oc1cc2cnc3c4cc(OC(C)=O)c(OC(C)=O)cc4ccc3c2cc1OC(C)=O | 0.538 | 37.9 |
| Cc1ccc2ccc(-c3ccccc3)c3c2c1C(=O)c1ccccc1C3=O | – | 74.4 |

Tested on: CAKI-1 renal
Assay: NCI tumour cell line growth inhibition, 48 h

| Compound | GI50 [µM] | TGI [µM] |
| --- | --- | --- |
| CS(=O)(=O)Nc1cc(-c2ccc3ncnc(Nc4cccc(Cl)c4)c3c2)cnc1Cl | 0.299 | 7.71 |
